# Patent US20250312365A1, “METHODS FOR INHIBITION OF SQUAMOUS CARCINOMA CELLS USING CERAMIDE MODULATORS” (The Trustees of Indiana University, priority 2024, published 2025)
# “Also recorded” adds a separate entry of the source.
# Key:
# [1] = tested on: p-STAT3; experiment: Western blot of p-STAT3 in OECM1 cells; type: cell-based, human; settings: time course 15 minutes to 24 hours, compared to sham control
# Method: (§1) To determine the effect of PGDHC on cell markers involved in metastasis, the protein levels of p-STAT3, EMT markers, E-cadherin, N-cadherin, and Vimentin in OECM1 cells following in vitro exposure to PGDHC were determined by Western blot assay.
# [2] = tested on: healthy oral epithelial cells; experiment: ASAH1 expression and dihydroceramide accumulation in healthy oral epithelial cells; type: cell-based; settings: preliminary findings
# Text: Applicant performed in vitro studies to determine the effect of PEDHC and PGDHC on the proliferation of oral cancer cells via downregulation of acid ceramidase, thereby contributing to the accumulation of intracellular ceramides. […] Furthermore, PGDHC diminished metabolites in at least five different cell survival metabolomic pathways in OSCC cells but not in healthy cells. The metabolomic pathways included folate metabolism, arginine and proline metabolism, triacylglycerol biosynthesis de novo, mitochondrial election transport chain, and glycine and serine metabolism. […] In contrast to current approaches for undermining the viability of oral squamous cell carcinoma and treating OSCC, the present disclosure relates in some aspects to methods and compositions for selectively interfering with any of the growth, viability, proliferation, migration, and metastasis of oral squamous cell carcinoma.
# [3] = tested on: E-cadherin; experiment: Western blot of E-cadherin in OECM1 cells; type: cell-based, human; settings: 24 h of treatment
# Method: as §1
# [4] = tested on: human gingival squamous carcinoma cells (OECM1); experiment: Cell viability/proliferation assay (WST-1) in OECM1 cells; type: cell-based; settings: each tested concentration (0.1 μg/ml and 1 μg/ml); WST-1
# Text: (§2) In specific examples, colorimetric assays can be used to assess cellular viability and proliferation of cell cultures, such as MTT, WST-1, and resazurin assays. See, e.g., Präbst et al., Methods Mol Biol. 2017:1601:1-17.
# (§3) Various cell lines were exposed to PGDHC, including human gingival squamous carcinoma cells (OECM1), tongue squamous carcinoma cells (SCC4, SCC9), and healthy human gingival epithelial control cells (OBA9) in vitro.
# To elucidate the effects of C16:0 and dh-C16:0 on oral squamous cell carcinoma, the ability of exogenous C16:0 and dh-C16:0 to modulate proliferation and ceramidase expression in OECM1 cells was determined. […] In contrast, no effect of C16:0 on ASAH1 and ACER2 mRNA expressions.
# (§4) LCL521 is a dose-dependent acid ceramidase inhibitor. Comparison of the concentration-dependent effects of an acid ceramidase inhibitor, LCL521 (MedChemExpress®), and the bacterial-isolated a15:0-15:0PE phospholipid on the viability of healthy human epithelial, OBA9, and oral squamous cancer cell lines, OECM1 and SCC9, in vitro was evaluated. […] (FIG. 15A). […] (FIG. 15B).
# [5] = tested on: ceramide and dihydroceramide in OECM1 cells; experiment: Intracellular ceramide and dihydroceramide by mass-spectrometry in OECM1 cells; type: cell-based, human
# Text: Cellular levels of ceramides and dihydroceramides, and cellular accumulation or increase thereof, can be determined according to known methods, such as mass spectrometry. For example, Scherer et al., J Lipid Res. 2010 July; 51(7): 2001-2011 and Smeden et al., J Lipid Res. 2011 June; 52(6):1211-1221 describe LC/MS/MS methods for determining ceramide levels in cells.
# To assess intracellular ceramide levels, the concentration of ceramide and dihydroceramide in OECM1 cells exposed to PGDHC was measured using mass-spectrometry. […] No effect of 0.1 μg/ml of PGDHC on ceramide and dh-ceramide concentrations in OECM1 cells was observed. (FIG. 10C)
# [6] = tested on: OECM1 cells; experiment: Transwell (insert) transmigration assay, OECM1; type: cell-based, human; settings: 1 μg/ml, compared to sham control
# Method: A scratch wound healing assay was performed according to known methods to assess the effects of PGDHC on the migration of human oral squamous cell carcinoma cells. […] The scratch wound healing assay was validated with a transwell migration assay.
# [7] = tested on: tongue squamous carcinoma cells (SCC9); experiment: Cell viability/proliferation assay (WST-1) in SCC9 cells; type: cell-based, human; settings: 0.1 μg/ml and 1 μg/ml; WST-1
# Text: as §2, §3, §4
# [8] = tested on: ACER2; experiment: ACER2 mRNA expression in SCC4 cells; type: cell-based, human; settings: 0.1 or 1 μg/ml of PGDHC
# Method: Next, the effect of PGDHC on ceramidase gene expression was determined. OECM1 and SCC4 cells were exposed to 0.1 or 1 μg/ml of PGDHC. The mRNA levels of ceramidases were then measured following PGDHC exposure. PGDHC inhibited the expression of ASAH1 and ACER2 mRNAs in OECM1 (FIG. 8). […] See, e.g., Vijayan et al., J Adv Res. 2023 Dec. 21:S2090-1232(23)00403-4, Doan et al., Oncotarget. 2017 Nov. 7;8(68):112662-112674., Lai et al., Sci Rep. 2021 May 27;11(1):11221, Liu et al., Cancer Sci. 2020 July;111(7):2259-2274., and Liu et al., Front Genet. 2023 Mar. 1:14:1148437.
# [9] = tested on: healthy human gingival epithelial control cells (OBA9); experiment: Cell viability/proliferation assay (WST-1) in healthy OBA9 cells; type: cell-based; settings: 0.1 μg/ml and 1 μg/ml; WST-1
# Text: as §2, §3, §4
# [10] = tested on: IL6; experiment: IL6 mRNA expression in OECM1 cells; type: cell-based, human
# Method: NF-kB, MMP-2, ADAM-17, and IL6 are implicated in the degradation of the expression of genes involved in the cell basement membrane and extracellular matrix of oral squamous cell carcinoma. Accordingly, the expression of NFkB, MMP2, ADAM17, and IL6 in OECM1 cells following exposure to 0.1 μg/ml PGDHC and 1 μg/ml PGDHC was determined.
# Sphingosine-1-phosphate (S1P) sphingolipid plays an essential role in the survival, migration, and degradation of the basement membrane and extracellular matrix of oral squamous cell carcinoma (Yura et al., Cancers (Basel). 2020 August; 12(8): 2062). To determine whether PGDHC can inhibit such properties, the combined effects of PGDHC and S1P on OECM1 gene expression was tested in vitro.
# [11] = tested on: NFkB; experiment: NFkB mRNA expression in SCC4 cells; type: cell-based, human; settings: relative to control cells
# Method: Expression of these genes was also assessed in human tongue squamous cell carcinoma SCC4 cells.
substance,measurement,setting,value
phosphoglycerol dihydroceramide [PGDHC],levels of p-STAT3 protein in OECM1 cells,[1],no effect
same,inhibition of ASAH1 expression and accumulation of dihydroceramide in healthy oral epithelial cells,[2],not observed
same,protein level of E-cadherin in OECM1 cells,[3],little to no detectable effect
same,viability of OECM1 cells,[4],significantly inhibited
same,ceramide and dh-ceramide concentrations in OECM1 cells,[5]; 0.1 μg/ml,No effect
same,"intracellular concentration of ceramide C20:0, C26:0 and C26:1","[5]; 1 μg/ml, OECM1 cells",significantly elevated
same,"intracellular concentration of dihydroceramide dhC14:0, dhC16:0, dhC18:0, dhC20:0, dhC20:1, dhC22:1, dhC22:0, dhC24:1, dhC24:0, dhC26:1","[5]; 1 μg/ml, OECM1 cells",significantly elevated
same,total intracellular concentration of dihydroceramides,"[5]; 1 μg/ml, OECM1 cells, compared to ceramides",significantly elevated; also recorded: led to the accumulation
same,accumulation of C16:0 dihydroceramide (dh-C16:0),[5]; OECM1 cells,promotes the accumulation
same,number of transmigrated OECM1 cells,[6],significantly reduced
same,proliferation of SCC9 cells,[7],did not have an observable effect
same,expression of ACER2 mRNA in SCC4 cells,[8],downregulated
same,proliferation of healthy control OBA9 cells,[9],did not have a detectable effect; also recorded: did not have an observable effect
same,expression of IL6 mRNA in OECM1 cells,[10]; 1 μg/ml,significantly inhibited
same,expression of IL6 mRNA in OECM1 cells exposed to S1P,[10]; in combination with S1P,significantly inhibited
same,NFkB mRNA in SCC4 cells,[11],significantly diminished
